Molecules are shown by their SMILES. Calls of active or inactive are those of the source. The rule behind the calls is not given here. A value given as a limit tells only on which side of the number the result lay.

This assay deals with Peptidyl-prolyl cis-trans isomerase FKBP1A (Homo sapiens) (UniProt P62942). The assay is described as follows: FKBP12 binders, biophysical, NMR detection (AID 608). Conditions: NMR binding, purified FKBP12.
Chain of Peptidyl-prolyl cis-trans isomerase FKBP1A (Homo sapiens) (P62942 whole entry, looked up): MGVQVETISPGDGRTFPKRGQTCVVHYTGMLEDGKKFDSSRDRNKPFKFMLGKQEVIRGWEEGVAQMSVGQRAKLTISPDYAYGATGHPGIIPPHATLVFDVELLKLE
The Kd is a measure of binding affinity in units of concentration. With `COc1ccccc1C(=O)NC1CCN(C)CC1`, the Kd was > 4 mM (inactive).
To `NC(=O)NCCCC(N)C(=O)O` (configuration not stated) belongs > 4 mM (inactive); to `CCCCn1c(=O)cc(O)c2ccccc21`, > 4 mM (inactive); to `O=C(CSc1ncn[nH]1)c1ccccc1`, > 4 mM (inactive).
With `O=C(O)CS(=O)(=O)c1ccccc1`, the Kd is > 4 mM (inactive).
On to `CN1CN/C(=N\[N+](=O)[O-])N(c2ccccc2)C1`, for which the Kd is > 4 mM (inactive).
For the compound `CCn1nccc1C(=O)Nc1ccc(Cl)cc1Cl`, the Kd is > 4 mM (inactive).
As for `COC(=O)C1Cc2ccccc2N1` (configuration not stated), the Kd is > 4 mM (inactive).
For the compound `NCCNC(=S)Nc1ccccc1`, the Kd was > 4 mM (inactive).
To `OCc1ccc(N2CCOCC2)cc1` belongs > 4 mM (inactive); to `COC1=C(OC)C(=O)C(C/C=C(\C)CC/C=C(\C)CC/C=C(\C)CC/C=C(/C)CC/C=C(\C)CC/C=C(\C)CC/C=C(\C)CC/C=C(\C)CC/C=C(\C)CCC=C(C)C)=C(C)C1=O`, > 4 mM (inactive).
To `COc1c(O)cc2c(c1O)[C@H]1O[C@H](CO)[C@@H](O)[C@H](O)[C@@H]1OC2=O` belongs > 4 mM (inactive); to `CC(=O)Nc1ccn(-c2ccccc2)n1`, > 4 mM (inactive); to `Cc1onc(-c2c(Cl)cccc2Cl)c1C(N)=O`, > 4 mM (inactive).
On to `Cc1nnc(SCC(=O)Nc2ccccc2)[nH]c1=O`, for which the Kd is > 4 mM (inactive).
In the case of `CSc1nc2[nH]ncc2c(=O)[nH]1` it was > 4 mM (inactive); in that of `CSc1nc(-c2ccco2)nn1S(C)(=O)=O`, > 4 mM (inactive); in that of `COC(=O)C1[C@H]2C[C@H]3c4[nH]c5ccccc5c4CCN3C[C@@H]2CC[C@@H]1O` (some centres not stated), > 4 mM (inactive).
With `CCOC(=O)c1c(C)cc(OC)cc1O`, the Kd is > 4 mM (inactive).
Regarding `NC1CN2CCC1CC2` (configuration not stated), the Kd was > 4 mM (inactive).
With `O=c1cccc2n1C[C@H]1CNCC2C1`, the Kd is > 4 mM (inactive).
To `COC(=O)C[C@@H]1C2(C)C(=O)[C@@H](CC3=C4C=C(OC)O[C@@H](c5ccoc5)[C@]4(C)CCC32)[C@H](O)C1(C)C` (some centres not stated) belongs > 4 mM (inactive).
Consider `Cc1occc1C(=O)NCc1ccccn1`, for which the Kd was > 4 mM (inactive).
To `O=C1CSC(c2ccc3c(c2)OCO3)N1` (configuration not stated) belongs > 4 mM (inactive).
In the case of `C[C@@H]1O[C@@H](O[C@H]2[C@H](Oc3cc(O)c4c(=O)cc(-c5ccc(O)cc5)oc4c3)O[C@H](CO)[C@@H](O)[C@@H]2O)[C@H](O)[C@H](O)[C@H]1O` it was > 4 mM (inactive).
Take `O=C(CSc1ccnc(=O)[nH]1)NCc1ccccc1`: the Kd is > 4 mM (inactive).
Regarding `Cc1nnc(SCC(=O)N2CCc3ccccc32)s1`, the Kd is > 4 mM (inactive).
As for `S=c1nc2c(n[nH]1)[nH]c1ccccc12`, the Kd was > 4 mM (inactive).
Take `C=CC(C1=CC(=O)C(OC)=CC1=O)c1ccc(O)cc1` (configuration not stated): the Kd was > 4 mM (inactive).
For the compound `Cc1ccc(/C=N/n2c(C)nnc2C)cc1`, the Kd was > 4 mM (inactive).
On to `CCOC(=O)c1c(C)n([O-])c2ccccc2[n+]1=O`, for which the Kd is > 4 mM (inactive).
Regarding `NC(=O)CSc1nc2ccccc2[nH]1`, the Kd was > 4 mM (inactive).
In the case of `NC(=O)CN=Cc1c(O)[nH]c2ccccc12` it was > 4 mM (inactive); in that of `Cn1ccc(NC(=S)Nc2cccc([N+](=O)[O-])c2)n1`, > 4 mM (inactive); in that of `Nc1ccc(CN2CCOCC2)cc1`, > 4 mM (inactive).
To `Cc1ccc(S(=O)(=O)CC(N)=O)cc1` belongs > 4 mM (inactive).
Take `O=C(NC1CSCC1O)c1ccccc1` (configuration not stated): the Kd is > 4 mM (inactive).
As for `CC(=O)O[C@@H]1CC2C(C)(C)[C@H](O)CC[C@]2(C)C2CC[C@@]3(C)[C@H](c4ccoc4)OC(=O)C4OC43[C@@]21C` (some centres not stated), the Kd was > 4 mM (inactive).
In the case of `COc1ncnc(N)c1[N+](=O)[O-]` it was > 4 mM (inactive).
In the case of `COc1ccc(-c2cc(=O)c3c(O)c(OC)c(O[C@H]4O[C@H](CO[C@@H]5O[C@@H](C)[C@H](O)[C@@H](O)[C@H]5O)[C@@H](O)[C@H](O)[C@H]4O)cc3o2)cc1` it was > 4 mM (inactive); in that of `CN(C)c1ccc(CNn2cnnc2)cc1`, > 4 mM (inactive); in that of `Cc1cc2cc(N)ccc2[nH]1`, > 4 mM (inactive).
For the compound `CC1CCN(C(=O)c2ccc(NS(C)(=O)=O)cc2)CC1`, the Kd was > 4 mM (inactive).
To `CC(C)=CCc1c(O)cc2oc(C)cc(=O)c2c1O` belongs > 4 mM (inactive); to `Cn1ncc(SCc2ccco2)c(Cl)c1=O`, > 4 mM (inactive).
As for `COc1cc(C(=O)O[C@H]2CC[C@@]3(C)[C@@H]4CC[C@H]5[C@]6(O)C[C@H](O)[C@@]7(O)[C@@H](CN8C[C@@H](C)CC[C@H]8[C@@]7(C)O)[C@]6(O)C[C@@]53OC24O)cc(OC)c1OC`, the Kd was > 4 mM (inactive).
Turning to `CCCCCCCCCCCCCCC(C(=O)OC)C(O)(CC(=O)OC)C(=O)OC` (configuration not stated), the Kd was > 4 mM (inactive).
As for `NC(=O)c1ccsc1NC(=O)c1ccccc1[N+](=O)[O-]`, the Kd is > 4 mM (inactive).
To `O=C(COc1ccccc1)N1CCOCC1` belongs “inactive”.
In the case of `O=C1C2C3C=CC(O3)C2C(=O)N1c1ccccc1` (configuration not stated) it was > 4 mM (inactive); in that of `CC1(NC(=O)NCc2ccccc2)CCS(=O)(=O)C1` (configuration not stated), > 4 mM (inactive).
In the case of `O=C(O)c1cc2ccccc2[nH]1` it was > 4 mM (inactive); in that of `Cc1nnsc1C(=O)N(C)c1ccccc1`, > 4 mM (inactive).
As for `CC(CC(=O)NN)C1(O)CCCCC1` (configuration not stated), the Kd is > 4 mM (inactive).
Regarding `COc1ccc(-c2cc(=O)c3c(OC)c(OC)c(OC)c(OC)c3o2)cc1`, the Kd is > 4 mM (inactive).
To `O=C1NC(=S)NC(=O)C1=Cc1ccco1` belongs > 4 mM (inactive); to `COc1c2ccoc2cc2oc(=O)ccc12`, > 4 mM (inactive); to `Cc1cc(C(=O)Nc2cccnc2)no1`, > 4 mM (inactive).
To `Cc1cc(C)n(C/C=C/Cn2nc(C)cc2C)n1` belongs > 4 mM (inactive).
Turning to `O=c1/c(=C\c2cccnc2)sc2nc3ccccc3n12`, the Kd was > 4 mM (inactive).
`CNCc1ccco1`: the Kd is > 4 mM (inactive).
In the case of `Cc1c(CCO)c(=O)n2c([nH]c3ccccc32)c1C#N` it was > 4 mM (inactive); in that of `COC1=CC23CCCN2CCc2cc4c(cc2C3C1O)OCO4` (configuration not stated), > 4 mM (inactive).
On to `Cc1ccc(SCc2nc(-c3ccncc3)no2)cc1`, for which the Kd result was “inactive”.
On to `CC(C)(C)NC(=O)CN1C(=O)c2ccccc2S1(=O)=O`, for which the Kd is > 4 mM (inactive).
As to `[O-][n+]1onc2c1CCc1c-2nn(-c2ccccc2)[n+]1[O-]`, the Kd is > 4 mM (inactive).
To `Cc1nc(-c2ccc(CO)s2)cs1` belongs > 4 mM (inactive).
In the case of `OCc1snnc1-c1ccccc1` it was > 4 mM (inactive); in that of `CC1=C(C(N)=O)C(c2ccccc2)NC(=O)N1` (configuration not stated), > 4 mM (inactive); in that of `CC12CN3CC(C)(CN(C1)C3c1cccs1)C2O` (configuration not stated), > 4 mM (inactive).
Turning to `CC(C)C(=O)NCC(c1ccco1)N1CCOCC1` (configuration not stated), the Kd is > 4 mM (inactive).
On to `Cc1cc(C)nc(/N=C(\N)N2CCc3ccccc32)n1`, for which the Kd was > 4 mM (inactive).
To `N/N=C/c1cccnc1` belongs > 4 mM (inactive).
`Cc1nn(CC(=O)Nc2ccccn2)c(=O)c2ccccc12`: the Kd is > 4 mM (inactive).
`O=C1CC(=O)N(c2ccccc2)C(=O)N1`: the Kd is > 4 mM (inactive).
In the case of `CN1CCC(N(C)Cc2cccnc2)CC1` it was > 4 mM (inactive); in that of `Cc1n[nH]c(=S)n1-c1ccc(C(=O)O)cc1`, > 4 mM (inactive).
In the case of `c1ccc(NCc2nc(-c3ccccc3)no2)cc1` it was > 4 mM (inactive); in that of `CSc1nc(C)cc(-n2ccc(=O)[nH]c2=O)n1`, > 4 mM (inactive); in that of `COc1cc(O)c2c(=O)c(O)c(-c3ccc(O)c(O)c3)oc2c1`, > 4 mM (inactive).
To `Cc1ccccc1-n1c(N)cc(=O)[nH]c1=S` belongs > 4 mM (inactive).
In the case of `COc1ccc2[nH]cc(CCNC(C)=O)c2c1`, the Kd was > 4 mM (inactive).
Consider `O=C1C2C3C=CC(C3)C2C(=O)N1CCCO` (configuration not stated), for which the Kd is > 4 mM (inactive).
Regarding `CC(Sc1ncn[nH]1)C(=O)O` (configuration not stated), the Kd is > 4 mM (inactive).
In the case of `NC(CC(=O)O)C(=O)Nc1ccc(Cl)cc1` (configuration not stated) it was > 4 mM (inactive).
To `CS(=O)(=O)NC1CCN(Cc2ccccc2)CC1` belongs > 4 mM (inactive); to `COc1ccc(-c2cc(=O)c3c(O)cc(O[C@@H]4O[C@H](CO[C@H]5O[C@H](C)[C@@H](O)[C@H](O)[C@@H]5O)[C@@H](O)[C@H](O)[C@H]4O)cc3o2)cc1O`, > 4 mM (inactive); to `C[C@@H]1CC[C@]2(C(=O)O)CC[C@]3(C)C(=CCC4[C@@]5(C)CC[C@H](O)C(C)(C)C5CC[C@]43C)C2[C@H]1C` (some centres not stated), > 4 mM (inactive).
As to `O=S(=O)(Nc1cc(Cl)cc(Cl)c1)N1CCCCC1`, the Kd entry is “inactive”.
With `O=C(NC1CCS(=O)(=O)C1)c1ccccc1` (configuration not stated), the Kd was > 4 mM (inactive).
To `CCc1nnc(NC(C)=O)s1` belongs > 4 mM (inactive).
On to `CN(Cc1nc2ccccc2n1C)C(=O)c1cccs1`, for which the Kd was > 4 mM (inactive).
To `CC(=O)O[C@@H]1CC2C(C)(C)[C@@H](O)CC[C@]2(C)C2CC[C@@]3(C)[C@H](c4ccoc4)OC(=O)[C@H]4O[C@]43[C@@]21C` (some centres not stated) belongs > 4 mM (inactive).
In the case of `COc1cccc(N2CCNCC2)c1` it was > 4 mM (inactive); in that of `NCc1csc(-c2cccs2)n1`, > 4 mM (inactive).
In the case of `C(=N\n1cnnc1)/c1cccs1`, the Kd is > 4 mM (inactive).
To `CC12CCC3C(CC3(C)C)C(C)(CCC1=O)O2` (configuration not stated) belongs > 4 mM (inactive).
